Where two headings read alike, the source gives them in different places. Square brackets hold non-standard residues; d marks the D form. Peptide text beside a SMILES is read from it. Gly(N-(CH2)6NH2) = NCCCCCCNCC(=O)O; Gly(N-2-aminoethyl) = NCCNCC(=O)O; Nspe = C[C@H](NCC(=O)O)c1ccccc1; Nphe = O=C(O)CNCc1ccccc1; Nlys = NCCCCNCC(=O)O
Key:
Format in all cases: cell-based
[1] = tested on: Staphylococcus aureus (3R7089 strain Oxford/ATCC9144)
Method: (§1) Escherichia coli K-12 wild-type strain (W3110/ATCC27325, F^–, λ^–, rpoS(Am), rph-1, Inv(rrnD-rrnE)), Pseudomonas aeruginosa PA01 (ATCC 15692) Staphylococcus aureus (3R7089 strain Oxford/ATCC9144) and Staphylococcus epidermidis (laboratory strain from clinical isolate) were selected for bacteriological studies as representative Gram-negative (E. coli and P. aeruginosa) and Gram-positive (S. aureus and S. epidermidis) species. Bacterial cultures were prepared by streaking bacterial strains onto LB agar plates with an inoculation loop and incubated overnight at 37 °C. A single colony was selected and placed in 5 mL of Iso-sensitest broth (Oxoid, ThermoScientific) and incubated with shaking for 16–18 h at 37 °C to provide liquid cultures for testing.
(§2) MIC values were obtained according to the protocol described by J. M. Andrews et al.[58] and were conducted in 96-well plates (Sarstedt). Bacteria were grown from overnight cultures in Iso-sensitest broth to an A650nm of 0.07 equivalent to a 0.5 MacFarland standard (240 μM BaCl2 in 0.18 M H2SO4). This culture was diluted ten-fold with Iso-sensitest broth before use. Peptoids were initially dissolved in DMSO (5 mM) and diluted further in Iso-sensitest broth to achieve a concentration range of 4–200 μM using 2-fold serial dilutions. 50 μl of inoculum and 50 μl of peptoid solution were added to each test well (final concentration range of 2–100 μM). Experiments were performed in triplicate. A positive control for bacterial growth contained only the inoculum and Iso-sensitest broth. Other controls contained the inoculum and serial dilutions of ampicillin (from 250 μg mL^–1 to 2 μg mL^–1), serial dilutions of DMSO and the inoculum to confirm no inhibitory effect on bacterial growth, and Iso-sensitest broth alone as a sterile control. […] Quantitative data was attained from absorbance values using a Biotek Synergy H4 plate reader.
(§3) Antibacterial MIC determination
as §1, with “(W3110 / ATCC27325, F-, λ-,” for “(W3110/ATCC27325, F^–, λ^–,”, “Oxford / ATCC9144)” for “Oxford/ATCC9144)”, “°C.” for “°C. A single colony was selected and placed in 5 mL of Iso-sensitest broth (Oxoid, ThermoScientific) and incubated with shaking for 16–18 h at 37 °C to provide liquid cultures for testing.”
(§4) A single colony was selected and placed in 5 mL of Iso-sensitest broth (Oxoid, ThermoScientific) and incubated with shaking for 16-18 h at 37 °C to provide liquid […]
(§5) MIC values were obtained according to the protocol described by J. M. Andrews et al.1 and were conducted in 96-well plates (Sarstedt). Bacteria were grown from overnight cultures in Iso-sensitest broth to an A650nm of 0.07 equivalent to a 0.5 MacFarland standard (240 μM BaCl2 in 0.18 M H2SO4). This culture was diluted ten-fold with Iso-sensitest broth before use. Peptoids were initially dissolved in DMSO (5 mM) and diluted further in Iso-sensitest broth to achieve a concentration range of 4 – 200 µM using 2-fold serial dilutions. 50 μl of inoculum and 50 μl of peptoid solution were added to each test well (final concentration range of 2 – 100 µM). Experiments were performed in triplicate. A positive control for bacterial growth contained only the inoculum and Iso-sensitest broth. Other controls contained the inoculum and serial dilutions of ampicillin (from 250 µg/mL to 2 µg/mL), serial dilutions of DMSO and the inoculum to confirm no inhibitory effect on bacterial growth, and Iso-sensitest broth alone as a sterile control. […]
(§6) growth after incubation at 37 °C for 16 h with shaking. Quantitative data was attained from absorbance values using a Biotek Synergy H4 plate reader.

[2] = tested on: Staphylococcus epidermidis (laboratory strain from clinical isolate); details: 16 h
Method: as §1, §2, §3
as §1, with “(W3110 / ATCC27325, F-, λ-,” for “(W3110/ATCC27325, F^–, λ^–,”, “Oxford / ATCC9144)” for “Oxford/ATCC9144)”, “°C.” for “°C. A single colony was selected and placed in 5 mL of Iso-sensitest broth (Oxoid, ThermoScientific) and incubated with shaking for 16–18 h at 37 °C to provide liquid cultures for testing.”
as §4, §5, §6

[3] = tested on: Pseudomonas aeruginosa PA01 (ATCC 15692)
Method: as §1, §2, §3
as §1, with “(W3110 / ATCC27325, F-, λ-,” for “(W3110/ATCC27325, F^–, λ^–,”, “Oxford / ATCC9144)” for “Oxford/ATCC9144)”, “°C.” for “°C. A single colony was selected and placed in 5 mL of Iso-sensitest broth (Oxoid, ThermoScientific) and incubated with shaking for 16–18 h at 37 °C to provide liquid cultures for testing.”
as §4, §5, §6

[4] = tested on: Escherichia coli K-12 wild-type strain (W3110/ATCC27325); details: for MIC E. coli: lowest concentration completely inhibiting growth, 37 °C, 16 h, range 2–100 μM
Method: as §1, §2, §3
as §1, with “(W3110 / ATCC27325, F-, λ-,” for “(W3110/ATCC27325, F^–, λ^–,”, “Oxford / ATCC9144)” for “Oxford/ATCC9144)”, “°C.” for “°C. A single colony was selected and placed in 5 mL of Iso-sensitest broth (Oxoid, ThermoScientific) and incubated with shaking for 16–18 h at 37 °C to provide liquid cultures for testing.”
as §4, §5, §6

[5] = lowest concentration completely inhibiting growth, 37 °C, 16 h, range 2–100 μM
[6] = laboratory strain from clinical isolate
[7] = lowest concentration completely inhibiting growth, 37 °C, range 2–100 μM

Compound	MIC S. aureus [1, 5]	MIC S. epidermidis [2, 6]	MIC S. epidermidis [2, 7]	MIC P. aeruginosa ([3]; ATCC 15692, 16 h)	MIC P. aeruginosa [3, 5]	MIC E. coli [4]	activity against P. aeruginosa (in words) [3]	activity against E. coli (in words) [4]	MIC S. aureus ([1]; ATCC9144, 16 h)
NCCNCC(=O)N(CC(=O)N(CC(=O)N(CCN)CC(=O)N(CC(=O)N(CC(=O)N(CCN)CC(=O)N(CC(=O)N(CC(N)=O)Cc1ccccc1)Cc1ccccc1)Cc1ccccc1)Cc1ccccc1)Cc1ccccc1)Cc1ccccc1 [Peptoid 8, (NaeNpheNphe)3] (H-[Gly(N-2-aminoethyl)][Nphe][Nphe][Gly(N-2-aminoethyl)][Nphe][Nphe][Gly(N-2-aminoethyl)][Nphe][Nphe]-NH2)	13 µM	>100 µM	100 µM	>100 µM	100 µM	>100 µM	–	–	–
NCCCCNCC(=O)N(CC(=O)N(CC(=O)N(CCCCN)CC(=O)N(CC(=O)N(CC(=O)N(CCCCN)CC(=O)N(CC(=O)N(CC(N)=O)Cc1cccc(F)c1)Cc1cccc(F)c1)Cc1cccc(F)c1)Cc1cccc(F)c1)Cc1cccc(F)c1)Cc1cccc(F)c1 [Peptoid 25, (NLysNmfbNmfb)3]	6 µM	–	2 µM	–	25 µM	13 µM	–	–	–
NCCCCCCNCC(=O)N(CC(=O)N(CC(=O)N(CCCCCCN)CC(=O)N(CC(=O)N(CC(=O)N(CCCCCCN)CC(=O)N(CC(=O)N(CC(=O)N(CCCCCCN)CC(=O)N(CC(=O)N(CC(N)=O)Cc1ccccc1)Cc1ccccc1)Cc1ccccc1)Cc1ccccc1)Cc1ccccc1)Cc1ccccc1)Cc1ccccc1)Cc1ccccc1 [Peptoid 1, (NahNpheNphe)4] (H-[Gly(N-(CH2)6NH2)][Nphe][Nphe][Gly(N-(CH2)6NH2)][Nphe][Nphe][Gly(N-(CH2)6NH2)][Nphe][Nphe][Gly(N-(CH2)6NH2)][Nphe][Nphe]-NH2)	–	–	–	>100 µM	–	13 µM	–	–	–
C[C@@H](c1ccccc1)N(CC(N)=O)C(=O)CN(Cc1ccc(F)cc1)C(=O)CN(CCCCN)C(=O)CN(C(=O)CN(Cc1ccc(F)cc1)C(=O)CN(CCCCN)C(=O)CN(C(=O)CN(Cc1ccc(F)cc1)C(=O)CN(CCCCN)C(=O)CN(C(=O)CN(Cc1ccc(F)cc1)C(=O)CNCCCCN)[C@@H](C)c1ccccc1)[C@@H](C)c1ccccc1)[C@@H](C)c1ccccc1 [Peptoid 26, (NLysNpfbNspe)4]	2 µM	–	2 µM	–	13 µM	13 µM	–	–	–
COc1ccc(CN(CC(N)=O)C(=O)CN(Cc2ccc(OC)cc2)C(=O)CN(CCCCN)C(=O)CN(Cc2ccc(OC)cc2)C(=O)CN(Cc2ccc(OC)cc2)C(=O)CN(CCCCN)C(=O)CN(Cc2ccc(OC)cc2)C(=O)CN(Cc2ccc(OC)cc2)C(=O)CN(CCCCN)C(=O)CN(Cc2ccc(OC)cc2)C(=O)CN(Cc2ccc(OC)cc2)C(=O)CNCCCCN)cc1 [Peptoid 19, (NLysNpmbNpmb)4]	3 µM	–	2 µM	>100 µM	100 µM	>100 µM	negligible effect	negligible effect	–
NCCNCC(=O)N(CC(=O)N(CC(=O)N(CCN)CC(=O)N(CC(=O)N(CC(=O)N(CCN)CC(=O)N(CC(=O)N(CC(=O)N(CCN)CC(=O)N(CC(=O)N(CC(N)=O)Cc1ccccc1)Cc1ccccc1)Cc1ccccc1)Cc1ccccc1)Cc1ccccc1)Cc1ccccc1)Cc1ccccc1)Cc1ccccc1 [Peptoid 7, (NaeNpheNphe)4] (H-[Gly(N-2-aminoethyl)][Nphe][Nphe][Gly(N-2-aminoethyl)][Nphe][Nphe][Gly(N-2-aminoethyl)][Nphe][Nphe][Gly(N-2-aminoethyl)][Nphe][Nphe]-NH2)	2 µM	–	6 µM	–	50 µM	13 µM	–	–	–
NCCCCNCC(=O)N(CC(=O)N(CC(=O)N(CCCCN)CC(=O)N(CC(=O)N(CC(=O)N(CCCCN)CC(=O)N(CC(=O)N(CC(=O)N(CCCCN)CC(=O)N(CC(=O)N(CC(N)=O)Cc1cccc(F)c1)Cc1cccc(F)c1)Cc1cccc(F)c1)Cc1cccc(F)c1)Cc1cccc(F)c1)Cc1cccc(F)c1)Cc1cccc(F)c1)Cc1cccc(F)c1 [Peptoid 24, (NLysNmfbNmfb)4]	6 µM	–	3 µM	–	25 µM	25 µM	–	–	–
NCCCCNCC(=O)N(CC(=O)N(CC(=O)N(CCCCN)CC(=O)N(CC(=O)N(CC(=O)N(CCCCN)CC(=O)N(CC(=O)N(CC(N)=O)Cc1ccccc1)Cc1ccccc1)Cc1ccccc1)Cc1ccccc1)Cc1ccccc1)Cc1ccccc1 [Peptoid 5, (NLysNpheNphe)3]	25 µM	–	6 µM	>100 µM	100 µM	50 µM	–	–	–
NCCNCC(=O)N(CC(=O)N(CC(=O)N(CCN)CC(=O)N(CC(=O)N(CC(N)=O)Cc1ccccc1)Cc1ccccc1)Cc1ccccc1)Cc1ccccc1 [Peptoid 9, (NaeNpheNphe)2] (H-[Gly(N-2-aminoethyl)][Nphe][Nphe][Gly(N-2-aminoethyl)][Nphe][Nphe]-NH2)	100 µM	>100 µM	100 µM	>100 µM	100 µM	>100 µM	–	–	>100 µM
C[C@@H](c1ccccc1)N(CC(N)=O)C(=O)CN(C(=O)CN(CCCCCCN)C(=O)CN(C(=O)CN(C(=O)CNCCCCCCN)[C@@H](C)c1ccccc1)[C@@H](C)c1ccccc1)[C@@H](C)c1ccccc1 [Peptoid 12, (NahNspeNspe)2]	–	–	–	>100 µM	–	>100 µM	–	–	>100 µM
C[C@@H](c1ccccc1)N(CC(N)=O)C(=O)CN(C(=O)CN(CCCCN)C(=O)CN(C(=O)CN(C(=O)CN(CCCCN)C(=O)CN(C(=O)CN(C(=O)CN(CCCCN)C(=O)CN(C(=O)CN(C(=O)CNCCCCN)[C@@H](C)c1ccccc1)[C@@H](C)c1ccccc1)[C@@H](C)c1ccccc1)[C@@H](C)c1ccccc1)[C@@H](C)c1ccccc1)[C@@H](C)c1ccccc1)[C@@H](C)c1ccccc1 [Peptoid 13, (NLysNspeNspe)4] (H-[Nlys][Nspe][Nspe][Nlys][Nspe][Nspe][Nlys][Nspe][Nspe][Nlys][Nspe][Nspe]-NH2)	2 µM	–	1 µM	–	50 µM	25 µM	–	–	–
NCCCCCCNCC(=O)N(CC(=O)N(CC(=O)N(CCCCCCN)CC(=O)N(CC(=O)N(CC(=O)N(CCCCCCN)CC(=O)N(CC(=O)N(CC(N)=O)Cc1ccccc1)Cc1ccccc1)Cc1ccccc1)Cc1ccccc1)Cc1ccccc1)Cc1ccccc1 [Peptoid 2, (NahNpheNphe)3] (H-[Gly(N-(CH2)6NH2)][Nphe][Nphe][Gly(N-(CH2)6NH2)][Nphe][Nphe][Gly(N-(CH2)6NH2)][Nphe][Nphe]-NH2)	–	–	–	>100 µM	–	50 µM	–	–	–
C[C@@H](c1ccccc1)N(CC(N)=O)C(=O)CN(C(=O)CN(CCCCCCN)C(=O)CN(C(=O)CN(C(=O)CN(CCCCCCN)C(=O)CN(C(=O)CN(C(=O)CNCCCCCCN)[C@@H](C)c1ccccc1)[C@@H](C)c1ccccc1)[C@@H](C)c1ccccc1)[C@@H](C)c1ccccc1)[C@@H](C)c1ccccc1 [Peptoid 11, (NahNspeNspe)3] (H-[Gly(N-(CH2)6NH2)][Nspe][Nspe][Gly(N-(CH2)6NH2)][Nspe][Nspe][Gly(N-(CH2)6NH2)][Nspe][Nspe]-NH2)	–	–	–	>100 µM	–	25 µM	–	–	–

Source: paper PMC6072100, “Exploring the links between peptoid antibacterial activity and toxicity” (MedChemComm, 2017)
